According to patent US20220112445A1 (priority 2019, published 2022):
Read-outs that look alike come from different tables or passages of the source.

Experiments:
Bacillus subtilis spores = conditions: 20 mg/I hydrogen peroxide for 60 minutes; cited from earlier work
Bacillus spores [1] = conditions: cited from earlier work
Bacillus spores [2] = tested on: Bacillus spores
Method: Other embodiments of the treatment formula were also tested using varying amounts of hydrogen peroxide.

[3] = tested on: Bacillus subtilis subsp. globigii; conditions: cited from earlier work

Structure (SMILES): OO [H2O2, hydrogen peroxide]
- kill of Bacillus subtilis spores (Bacillus subtilis spores): no kill
- concentration exponent (Bacillus spores [1]; 25° C., levels of between 10 and 20% (w/v)): about 1.5
- bactericidal / sporicidal activity (Bacillus spores [1]; concentration of 6% (w/vol)): bactericidal, but only slowly sporicidal
- Spore Survival 5 Minutes (Bacillus spores [2]; 0.285 Percent H2O2, 5 minutes after mixing): Excellent
- Spore Survival 2 Hours (Bacillus spores [2]; 0.285 Percent H2O2, 2 hours after mixing): Excellent
- Spore Survival 4 Hours (Bacillus spores [2]; 0.285 Percent H2O2, 4 hours after mixing): Excellent
- Spore Survival 6 Hours (Bacillus spores [2]; 0.285 Percent H2O2, 6 hours after mixing): Excellent
- Spore Survival 24 Hours (Bacillus spores [2]; 0.285 Percent H2O2, 24 hours after mixing): Excellent
- Spore Survival 5 Minutes (Bacillus spores [2]; 0.71 Percent H2O2, 5 minutes after mixing): Excellent
- Spore Survival 2 Hours (Bacillus spores [2]; 0.71 Percent H2O2, 2 hours after mixing): Good
- Spore Survival 4 Hours (Bacillus spores [2]; 0.71 Percent H2O2, 4 hours after mixing): Fair
- Spore Survival 6 Hours (Bacillus spores [2]; 0.71 Percent H2O2, 6 hours after mixing): Fair
- Spore Survival 24 Hours (Bacillus spores [2]; 0.71 Percent H2O2, 24 hours after mixing): Poor
- spore viability (Bacillus spores [2]; 1.43% hydrogen peroxide level): not viable
- Spore Survival 5 Minutes (Bacillus spores [2]; 1.43 Percent H2O2, 5 minutes after mixing): 0
- Spore Survival 2 Hours (Bacillus spores [2]; 1.43 Percent H2O2, 2 hours after mixing): 0
- Spore Survival 4 Hours (Bacillus spores [2]; 1.43 Percent H2O2, 4 hours after mixing): 0
- Spore Survival 6 Hours (Bacillus spores [2]; 1.43 Percent H2O2, 6 hours after mixing): 0
- Spore Survival 24 Hours (Bacillus spores [2]; 1.43 Percent H2O2, 24 hours after mixing): 0
- effectiveness against Bacillus subtilis subsp. globigii ([3]; 10% hydrogen peroxide at room temperature): ineffective
- concentration required for the destruction of these spores ([3]; high temperature (80° C.)): 35%
